From PubChem BioAssay (NCI)
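Growth conditions: 96-well plates. Treatment: test compound, 48 hours, 5 concentrations. Analysis: linear interpolation between bracketing concentrations; unreached endpoints set to highest concentration. TGI marks complete inhibition of growth.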

Assays:
Experiment in all cases: DTP human tumour cell line panel, 48 h
786-0 renal = tested on: 786-0 renal
A498 renal = tested on: A498 renal
A549 NSCLC = tested on: A549 NSCLC
ACHN renal = tested on: ACHN renal
BT-549 breast = tested on: BT-549 breast
CAKI-1 renal = tested on: CAKI-1 renal
CCRF-CEM leukemia = tested on: CCRF-CEM leukemia
COLO 205 colon = tested on: COLO 205 colon
DU-145 prostate = tested on: DU-145 prostate
EKVX NSCLC = tested on: EKVX NSCLC
HCC-2998 colon = tested on: HCC-2998 colon
HCT-116 colon = tested on: HCT-116 colon
HCT-15 colon = tested on: HCT-15 colon
HL-60(TB) leukemia = tested on: HL-60(TB) leukemia
HOP-62 NSCLC = tested on: HOP-62 NSCLC
HOP-92 NSCLC = tested on: HOP-92 NSCLC
HS 578T breast = tested on: HS 578T breast
HT29 colon = tested on: HT29 colon
IGROV1 ovarian = tested on: IGROV1 ovarian
K-562 leukemia = tested on: K-562 leukemia
KM12 colon = tested on: KM12 colon
LOX IMVI melanoma = tested on: LOX IMVI melanoma
M14 melanoma = tested on: M14 melanoma
MALME-3M melanoma = tested on: MALME-3M melanoma
MCF7 breast = tested on: MCF7 breast
MDA-MB-231 breast = tested on: MDA-MB-231 breast
MDA-MB-435 = tested on: MDA-MB-435
MDA-N = tested on: MDA-N
MOLT-4 leukemia = tested on: MOLT-4 leukemia
NCI-H226 lung = tested on: NCI-H226 lung
NCI-H23 lung = tested on: NCI-H23 lung
NCI-H460 lung = tested on: NCI-H460 lung
NCI-H522 lung = tested on: NCI-H522 lung
NCI/ADR-RES ovarian = tested on: NCI/ADR-RES ovarian
OVCAR-3 ovarian = tested on: OVCAR-3 ovarian
OVCAR-4 ovarian = tested on: OVCAR-4 ovarian
OVCAR-5 ovarian = tested on: OVCAR-5 ovarian
OVCAR-8 ovarian = tested on: OVCAR-8 ovarian
PC-3 prostate = tested on: PC-3 prostate
RPMI-8226 leukemia = tested on: RPMI-8226 leukemia
RXF 393 renal = tested on: RXF 393 renal
SF-268 CNS = tested on: SF-268 CNS
SF-295 CNS = tested on: SF-295 CNS
SF-539 CNS = tested on: SF-539 CNS
SK-MEL-2 melanoma = tested on: SK-MEL-2 melanoma
SK-MEL-28 melanoma = tested on: SK-MEL-28 melanoma
SK-MEL-5 melanoma = tested on: SK-MEL-5 melanoma
SK-OV-3 ovarian = tested on: SK-OV-3 ovarian
SN12C renal = tested on: SN12C renal
SNB-19 CNS = tested on: SNB-19 CNS
SNB-75 CNS = tested on: SNB-75 CNS
SR leukemia = tested on: SR leukemia
SW-620 colon = tested on: SW-620 colon
T-47D breast = tested on: T-47D breast
TK-10 renal = tested on: TK-10 renal
U251 CNS = tested on: U251 CNS
UACC-257 melanoma = tested on: UACC-257 melanoma
UACC-62 melanoma = tested on: UACC-62 melanoma
UO-31 renal = tested on: UO-31 renal

`CCN(CC)CC(O)c1ccc2ccc3ccccc3c2c1` (centres undefined) was tested, and the TGI (786-0 renal) was 25.6 µM, the TGI (A498 renal) was 26.3 µM and the TGI (A549 NSCLC) was 31.4 µM. For the same compound, the TGI (ACHN renal) was 27.3 µM, the TGI (BT-549 breast) was 30.5 µM and the TGI (CAKI-1 renal) was 26.6 µM. For the same compound, the TGI (CCRF-CEM leukemia) was 45.3 µM, the TGI (COLO 205 colon) was 29.9 µM and the TGI (DU-145 prostate) was 33 µM. It also gave a TGI (EKVX NSCLC) of 29.5 µM, a TGI (HCC-2998 colon) of 23 µM and a TGI (HCT-116 colon) of 29.5 µM. It also gave a TGI (HCT-15 colon) of 33.2 µM, a TGI (HL-60(TB) leukemia) of 30.1 µM and a TGI (HOP-62 NSCLC) of 29.6 µM. For the same compound, the TGI (HOP-92 NSCLC) was 31.3 µM, the TGI (HS 578T breast) was 41.9 µM and the TGI (HT29 colon) was 25.2 µM. It also gave a TGI (IGROV1 ovarian) of 33 µM, a TGI (K-562 leukemia) of 32.5 µM and a TGI (KM12 colon) of 29.1 µM. It also gave a TGI (LOX IMVI melanoma) of 35.5 µM, a TGI (M14 melanoma) of 30.9 µM and a TGI (MALME-3M melanoma) of 34 µM. The TGI (MCF7 breast) was 28.2 µM, the TGI (MDA-MB-231 breast) was 28.4 µM and the TGI (MDA-MB-435) was 31.3 µM. For the same compound, the TGI (MDA-N) was 31 µM, the TGI (MOLT-4 leukemia) was 32.9 µM and the TGI (NCI-H226 lung) was 29.5 µM. The TGI (NCI-H23 lung) was 37 µM, the TGI (NCI-H460 lung) was 32.7 µM and the TGI (NCI-H522 lung) was 31.9 µM. For the same compound, the TGI (NCI/ADR-RES ovarian) was 33.6 µM, the TGI (OVCAR-3 ovarian) was 29.1 µM and the TGI (OVCAR-4 ovarian) was 35.3 µM. The TGI (OVCAR-5 ovarian) was 27.5 µM, the TGI (OVCAR-8 ovarian) was 32 µM and the TGI (PC-3 prostate) was 30.1 µM. The TGI (RPMI-8226 leukemia) was 38.2 µM, the TGI (RXF 393 renal) was 31.4 µM and the TGI (SF-268 CNS) was 34.7 µM. It also gave a TGI (SF-295 CNS) of 28.9 µM, a TGI (SF-539 CNS) of 25.8 µM and a TGI (SK-MEL-2 melanoma) of 30.9 µM. It also gave a TGI (SK-MEL-28 melanoma) of 34.6 µM, a TGI (SK-MEL-5 melanoma) of 27.3 µM and a TGI (SK-OV-3 ovarian) of 29.5 µM. The TGI (SN12C renal) was 32.1 µM, the TGI (SNB-19 CNS) was 29.5 µM and the TGI (SNB-75 CNS) was 33.5 µM. The TGI (SR leukemia) was 24.8 µM, the TGI (SW-620 colon) was 34.9 µM and the TGI (T-47D breast) was 37.7 µM. It also gave a TGI (TK-10 renal) of 29.9 µM, a TGI (U251 CNS) of 26 µM and a TGI (UACC-257 melanoma) of 31.5 µM. For the same compound, the TGI (UACC-62 melanoma) was 29.1 µM and the TGI (UO-31 renal) was 24.1 µM.
